Results: patent US8999664B2, “Method of improving salmon meat color” (JX Nippon Oil & Energy Corporation, priority 2006, dated 2015)

Assay: Carotenoid content in fish flesh of silver salmon by HPLC
Type: in vivo, Oncorhynchus kisutch
Settings: Fermented product division, silver salmon fish flesh, 6 months
Description: In the examples, the quantification of the carotenoid colorant was performed using high performance liquid chromatography (HPLC). Two columns of Wakosil-II 5 SIL-100 φ4.6×250 mm (produced by Wako Pure Chemical Industries, Ltd.) were connected to each other. An n-hexane:tetrahydrofuran:methanol (40:20:1) mixed solution was used as a mobile phase. A constant room temperature and a flow rate of 1.0 ml/min were used. The detection was performed at a wavelength of 470 nm. The feed or fish flesh was milled, and then the colorant was extracted with a tetrahydrofuran:methanol (20:1) mixed solution. The colorant was appropriately diluted with the mobile phase and analyzed by HPLC. 300 silver salmons (Oncorhynchus kisutch) each weighing about 200 g were cultivated as a test division of being fed with the above-described fermented product, and another 300 silver salmons each weighing about 200 g were cultivated as a test division of being fed with the above-described synthetic product. The salmons were fed in satiation in a marine fish pen for 6 months. After the 6 months of cultivating, 10 fish of each test division were weighed. […] The fish were immediately killed by cutting medulla and frozen for preservation. After being thawed, the fish flesh was milled by a coffee mill, and a part thereof was put into a polyethylene bag to measure the color tone thereof by a spectrometer CM-508i (Minolta). […] From a part of the milled fish flesh, the carotenoid colorant was extracted, and analyzed in terms of the content of each carotenoid compound by HPLC.

| SMILES | Ratio to astaxanthin |
| --- | --- |
| CC1=C(/C=C/C(C)=C/C=C/C(C)=C/C=C/C=C(C)/C=C/C=C(C)/C=C/C2=C(C)CCCC2(C)C)C(C)(C)CCC1 [β-carotin] | 0.2 or less % |
| CC1=C(/C=C/C(C)=C/C=C/C(C)=C/C=C/C=C(C)/C=C/C=C(C)/C=C/C2=C(C)C(=O)[C@@H](O)CC2(C)C)C(C)(C)C[C@H](O)C1 [Adonixanthin] | 23.1% |

Same assay, conditions: Fermented product division, silver salmon, 6 months, average of 10 fish

| SMILES | Content in fish flesh |
| --- | --- |
| CC1=C(/C=C/C(C)=C/C=C/C(C)=C/C=C/C=C(C)/C=C/C=C(C)/C=C/C2=C(C)CCCC2(C)C)C(C)(C)CCC1 [β-carotin] | 0.02 or less mg/kg |
| CC1=C(/C=C/C(C)=C/C=C/C(C)=C/C=C/C=C(C)/C=C/C=C(C)/C=C/C2=C(C)C(=O)[C@@H](O)CC2(C)C)C(C)(C)C[C@H](O)C1 [Adonixanthin] | 2.4 mg/kg |

Same assay, conditions: Synthetic product division, silver salmon, 6 months, average of 10 fish

| SMILES | Content in fish flesh |
| --- | --- |
| CC1=C(/C=C/C(C)=C/C=C/C(C)=C/C=C/C=C(C)/C=C/C=C(C)/C=C/C2=C(C)CCCC2(C)C)C(C)(C)CCC1 [β-carotin] | 0.02 or less mg/kg |
| CC1=C(/C=C/C(C)=C/C=C/C(C)=C/C=C/C=C(C)/C=C/C=C(C)/C=C/C2=C(C)C(=O)[C@@H](O)CC2(C)C)C(C)(C)C[C@H](O)C1 [Adonixanthin] | 0.02 or less mg/kg |

Assay: Carotenoid content in fish flesh of rainbow trout by HPLC
Type: in vivo, Oncorhynchus mykiss
Settings: Fermented product division, rainbow trout fish flesh, 3 months
Description: In the examples, the quantification of the carotenoid colorant was performed using high performance liquid chromatography (HPLC). Two columns of Wakosil-II 5 SIL-100 φ4.6×250 mm (produced by Wako Pure Chemical Industries, Ltd.) were connected to each other. An n-hexane:tetrahydrofuran:methanol (40:20:1) mixed solution was used as a mobile phase. A constant room temperature and a flow rate of 1.0 ml/min were used. The detection was performed at a wavelength of 470 nm. The feed or fish flesh was milled, and then the colorant was extracted with a tetrahydrofuran:methanol (20:1) mixed solution. The colorant was appropriately diluted with the mobile phase and analyzed by HPLC. 50 rainbow trouts (Oncorhynchus mykiss) each weighing about 100 g were cultivated in a water tank as a test division of being fed with the above-described fermented product, and another 50 rainbow trouts each weighing about 100 g were cultivated in a water tank as a test division of being fed with the above-described synthetic product. The trouts of each test division were fed in satiation in fresh water for 3 months. After the 3 months of cultivating, 12 fish of each test division were weighed. […] The fish were immediately killed by cutting medulla. […] After the measurement, the fish flesh was frozen for preservation. After being thawed, the fish flesh of the 12 fish of each test division was analyzed in terms of the content of each carotenoid compound.

| SMILES | Ratio to astaxanthin |
| --- | --- |
| CC1=C(/C=C/C(C)=C/C=C/C(C)=C/C=C/C=C(C)/C=C/C=C(C)/C=C/C2=C(C)CCCC2(C)C)C(C)(C)CCC1 [β-carotin] | 0.6 or less % |
| CC1=C(/C=C/C(C)=C/C=C/C(C)=C/C=C/C=C(C)/C=C/C=C(C)/C=C/C2=C(C)C(=O)[C@@H](O)CC2(C)C)C(C)(C)C[C@H](O)C1 [Adonixanthin] | 2.9% |

Same assay, conditions: Fermented product division, rainbow trout, 3 months, average of 12 fish

| SMILES | Content in fish flesh |
| --- | --- |
| CC1=C(/C=C/C(C)=C/C=C/C(C)=C/C=C/C=C(C)/C=C/C=C(C)/C=C/C2=C(C)CCCC2(C)C)C(C)(C)CCC1 [β-carotin] | 0.02 or less mg/kg |
| CC1=C(/C=C/C(C)=C/C=C/C(C)=C/C=C/C=C(C)/C=C/C=C(C)/C=C/C2=C(C)C(=O)[C@@H](O)CC2(C)C)C(C)(C)C[C@H](O)C1 [Adonixanthin] | 0.1 mg/kg |

Same assay, conditions: Synthetic product division, rainbow trout, 3 months, average of 12 fish

| SMILES | Content in fish flesh |
| --- | --- |
| CC1=C(/C=C/C(C)=C/C=C/C(C)=C/C=C/C=C(C)/C=C/C=C(C)/C=C/C2=C(C)CCCC2(C)C)C(C)(C)CCC1 [β-carotin] | 0.02 or less mg/kg |
| CC1=C(/C=C/C(C)=C/C=C/C(C)=C/C=C/C=C(C)/C=C/C=C(C)/C=C/C2=C(C)C(=O)[C@@H](O)CC2(C)C)C(C)(C)C[C@H](O)C1 [Adonixanthin] | 0.02 or less mg/kg |

Assay: Carotenoid content in fish flesh of king salmon by HPLC
Type: in vivo, Oncorhynchus tshawytscha
Settings: Fermented product division, king salmon fish flesh, 3 months
Description: In the examples, the quantification of the carotenoid colorant was performed using high performance liquid chromatography (HPLC). Two columns of Wakosil-II 5 SIL-100 φ4.6×250 mm (produced by Wako Pure Chemical Industries, Ltd.) were connected to each other. An n-hexane:tetrahydrofuran:methanol (40:20:1) mixed solution was used as a mobile phase. A constant room temperature and a flow rate of 1.0 ml/min were used. The detection was performed at a wavelength of 470 nm. The feed or fish flesh was milled, and then the colorant was extracted with a tetrahydrofuran:methanol (20:1) mixed solution. The colorant was appropriately diluted with the mobile phase and analyzed by HPLC. 100 king salmons (Oncorhynchus tshawytscha) each weighing about 200 g were cultivated as a test division of being fed with the above-described fermented product, and another 100 king salmons each weighing about 200 g were cultivated as a test division of being fed with the above-described synthetic product. The salmons were fed in satiation in a marine fish pen for 3 months. After the 3 months of cultivating, 15 fish of each test division were sampled and weighed. […] The fish were immediately killed by cutting medulla. […] After the measurement, the fish flesh was frozen for preservation for 1 month. After being thawed, the fish flesh of the fish of each test division was analyzed in terms of the content of each carotenoid compound.

| SMILES | Ratio to astaxanthin |
| --- | --- |
| CC1=C(/C=C/C(C)=C/C=C/C(C)=C/C=C/C=C(C)/C=C/C=C(C)/C=C/C2=C(C)CCCC2(C)C)C(C)(C)CCC1 [β-carotin] | 0.5 or less % |
| CC1=C(/C=C/C(C)=C/C=C/C(C)=C/C=C/C=C(C)/C=C/C=C(C)/C=C/C2=C(C)C(=O)[C@@H](O)CC2(C)C)C(C)(C)C[C@H](O)C1 [Adonixanthin] | 6.5% |

Same assay, conditions: Fermented product division, king salmon, 3 months, flesh frozen 1 month, average of 15 fish

| SMILES | Content in fish flesh |
| --- | --- |
| CC1=C(/C=C/C(C)=C/C=C/C(C)=C/C=C/C=C(C)/C=C/C=C(C)/C=C/C2=C(C)CCCC2(C)C)C(C)(C)CCC1 [β-carotin] | 0.02 or less mg/kg |
| CC1=C(/C=C/C(C)=C/C=C/C(C)=C/C=C/C=C(C)/C=C/C=C(C)/C=C/C2=C(C)C(=O)[C@@H](O)CC2(C)C)C(C)(C)C[C@H](O)C1 [Adonixanthin] | 0.3 mg/kg |

Same assay, conditions: Synthetic product division, king salmon, 3 months, flesh frozen 1 month, average of 15 fish

| SMILES | Content in fish flesh |
| --- | --- |
| CC1=C(/C=C/C(C)=C/C=C/C(C)=C/C=C/C=C(C)/C=C/C=C(C)/C=C/C2=C(C)CCCC2(C)C)C(C)(C)CCC1 [β-carotin] | 0.02 or less mg/kg |
| CC1=C(/C=C/C(C)=C/C=C/C(C)=C/C=C/C=C(C)/C=C/C=C(C)/C=C/C2=C(C)C(=O)[C@@H](O)CC2(C)C)C(C)(C)C[C@H](O)C1 [Adonixanthin] | 0.02 or less mg/kg |

Assay: Carotenoid content in fish flesh of Atlantic salmon by HPLC
Type: in vivo, Salmo salar
Settings: Fermented product division, Atlantic salmon fish flesh, 12 months
Description: In the examples, the quantification of the carotenoid colorant was performed using high performance liquid chromatography (HPLC). Two columns of Wakosil-II 5 SIL-100 φ4.6×250 mm (produced by Wako Pure Chemical Industries, Ltd.) were connected to each other. An n-hexane:tetrahydrofuran:methanol (40:20:1) mixed solution was used as a mobile phase. A constant room temperature and a flow rate of 1.0 ml/min were used. The detection was performed at a wavelength of 470 nm. The feed or fish flesh was milled, and then the colorant was extracted with a tetrahydrofuran:methanol (20:1) mixed solution. The colorant was appropriately diluted with the mobile phase and analyzed by HPLC. 400 Atlantic salmons (Salmo salar) each weighing about 300 g were cultivated as a test division of being fed with the above-described fermented product, and another 400 Atlantic salmons each weighing about 300 g were cultivated as a test division of being fed with the above-described synthetic product. The salmons were fed in satiation in a marine fish pen for 12 months. After the 12 months of cultivating, 20 fish of each test division were landed and weighed. […] The fish were immediately killed by cutting medulla, and the fish flesh was measured in terms of the color tone by a spectrometer. […] After the measurement, the fish flesh was frozen for preservation for 1 month. After being thawed, the fish flesh of the 20 fish of each test division was analyzed in terms of the content of each carotenoid compound.

| SMILES | Ratio to astaxanthin |
| --- | --- |
| CC1=C(/C=C/C(C)=C/C=C/C(C)=C/C=C/C=C(C)/C=C/C=C(C)/C=C/C2=C(C)CCCC2(C)C)C(C)(C)CCC1 [β-carotin] | 0.5 or less % |
| CC1=C(/C=C/C(C)=C/C=C/C(C)=C/C=C/C=C(C)/C=C/C=C(C)/C=C/C2=C(C)C(=O)[C@@H](O)CC2(C)C)C(C)(C)C[C@H](O)C1 [Adonixanthin] | 4.9% |

Same assay, conditions: Fermented product division, Atlantic salmon, 12 months, flesh frozen 1 month, average of 20 fish

| SMILES | Content in fish flesh |
| --- | --- |
| CC1=C(/C=C/C(C)=C/C=C/C(C)=C/C=C/C=C(C)/C=C/C=C(C)/C=C/C2=C(C)CCCC2(C)C)C(C)(C)CCC1 [β-carotin] | 0.02 or less mg/kg |
| CC1=C(/C=C/C(C)=C/C=C/C(C)=C/C=C/C=C(C)/C=C/C=C(C)/C=C/C2=C(C)C(=O)[C@@H](O)CC2(C)C)C(C)(C)C[C@H](O)C1 [Adonixanthin] | 0.2 mg/kg |

Same assay, conditions: Synthetic product division, Atlantic salmon, 12 months, flesh frozen 1 month, average of 20 fish

| SMILES | Content in fish flesh |
| --- | --- |
| CC1=C(/C=C/C(C)=C/C=C/C(C)=C/C=C/C=C(C)/C=C/C=C(C)/C=C/C2=C(C)CCCC2(C)C)C(C)(C)CCC1 [β-carotin] | 0.02 or less mg/kg |
| CC1=C(/C=C/C(C)=C/C=C/C(C)=C/C=C/C=C(C)/C=C/C=C(C)/C=C/C2=C(C)C(=O)[C@@H](O)CC2(C)C)C(C)(C)C[C@H](O)C1 [Adonixanthin] | 0.02 or less mg/kg |
